Patent publication US20260306421A1, “SYSTEMS AND METHODS FOR TRANSDERMAN PATCH DELIVERY” (VITAMAX PATCH WHOLESALER LLC, priority 2022, published 2026)

Experiments:
[1] = Solubility of cholecalciferol and cholecalciferol phosphate (disodium, acid); format: physicochemical
Protocol: Aliquots of cholecalciferol, cholecalciferol phosphate disodium, and cholecalciferol phosphate acid were added to a range of solvents including propylene glycol (PG), distilled water, methanol, ethyl acetate, ethanol, n-hexane, and the visual solubility was determined. A precise assessment of the saturation solubility was for some of the solvent systems was made using high-performance liquid chromatography (HPLC). In the HPLC solubility studies, an excess of each solute was added into 2 mL of each test solvent. The solutions were left stirring overnight at room temperature, (RT), 22° C. The saturation of the solutions was confirmed by the visual appearance of crystals and the drug suspensions were filtered through 0.2 μm cellulose acetate syringe filters, diluted with excess of mobile phase, and the solute concentration of each sample was assessed using HPLC.

[2] = Chemical stability of cholecalciferol and cholecalciferol phosphate disodium in donor, extraction and receiver fluids; format: physicochemical; conditions: for chemical stability: 37° C., 24 h
Protocol: To assess the chemical stability of the test agents in the liquids in which they were to be dissolved for the skin permeation experiments, 1 mg/mL solutions of cholecalciferol and cholecalciferol phosphate disodium in propylene glycol (PG) were prepared and incubated at 37° C. for 24 h. In addition, 100 μg/mL cholecalciferol in 50:50 PG:ethanol mixture, 100 μg/mL cholecalciferol phosphate disodium in 90:10 methanol:water mixture as well as and in 50% PG 40% Methanol: 10% water pH 3.2 (90:10) were also incubated at 37° C. for 24 hours.

[3] = Cholecalciferol phosphate adhesive suitability / compatibility screen; format: physicochemical
Protocol: Pre-formulation studies were performed to determine the compatibility of cholecalciferol phosphate (disodium and acid forms) with a range of adhesives (Table 38) that could be used to manufacture of the patch. The compatibility of the drugs with the patch excipients was assessed through checking the clarity of the mixture.
The compatibility of the adhesive with solvents and drug was established. The maximum drug loading in the adhesive following solvent evaporation was determined by mixing the drug, adhesive and co-solvents until a clear solution is obtained at different drug:adhesive ratios by placing a drop of solution onto patch backing sheet, leaving the slide to dry for 3-4 hours and examining the formed fil on the surface of the backings for evidence of drug crystals were assessed using KKmoon digital magnifier with LED light (China). Following patch optimization, the drug-adhesive solution was cast as 10×10 cm squares using of backing (3M™ Scotchpak™ Polyester Backing Film Laminate 9730). A sufficient volume of the adhesive was applied to achieve a target coating of 8 mg/cm^2. Following complete drying of the solvents, the adhesive layer was covered by M3 Release liner (SCOTCHPAK 9755), compressed, and then cut using 34 mm circular manual die cutter (SCP Super Cutting Press).

[4] = Release of cholecalciferol phosphate disodium solutions through synthetic membrane; format: in vitro ADME
Protocol: Preliminary studies were conducted to determine the best synthetic membrane for the patch release using the Franz diffusion cells. Regenerated cellulose (12-14 k molecular weight cut-off Medicell International UK) was compared to nylon (0.20 μm, Whatman, UK) using a range of donor and receiver solutions. The regenerated cellulose membrane was heated to 60° C. for 30 minutes after which the double layer of polymer (it is supplied as a dialysis membrane) was separated and mounted onto the Franz cell (FIG. 3) by sealing between the two compartments using parafilm, and 12 mm magnetic stirrers were placed into the receiver compartment. The receiver compartment was filled with either 50:50 PG:mobile phase (90:10 methanol:water pH 3.2), or 80:20 PG:distilled water, or 75 mM pH 7 saline. The cell sealing was confirmed by cell inversion and monitoring solvent back diffusion. […] The temperature of the Franz diffusion was maintained at 37° C. in a water bath, to set up the membrane temperature to 32° C. […] The 1 ml receiver fluid samples were collected and analysed by HPLC methods at different time intervals. […]

[5] = Cholecalciferol phosphate disodium patch release; format: in vitro ADME; conditions: control solution in PG, 24 h
Protocol: The patch was produced by mixing 82.9 μL of the adhesive, 1.92 μL of PG and the 4 mg of cholecalciferol phosphate disodium (Table 39). The patch formulation was cast into an in-house rectangular tray measuring 10 by 10 cm. The mixture was left to cure for 3-4 h. The laminate was then added to the adhesive and circles of 34 mm diameter were cut using a dye cutting machine and the release of the cholecalciferol was assessed using the Franz diffusion cells fitted with a nylon membrane over 24 h. A nylon membrane (0.20 μm) was glued to the receiver chamber and no donor chamber was employed to allow the patch to be placed directly on the surface of the nylon membrane. A cholecalciferol phosphate disodium saturated PG solution was used as a comparator with the standard Franz cell set-up previously described. The receiver fluid was 80% PG 20% water for both release testing from the solution and the patch.

cholecalciferol phosphate disodium
Solubility ([1]; solvent PG): 2670 ± 310 µg/mL
Solubility ([1]; solvent PG + 5% ethanol): 340 ± 610 µg/mL
chemical stability ([2]; PG): 86±5.7%
chemical stability (in words) ([2]; conclusions): indication of chemical instability
chemical stability ([2]; extraction fluid 90:10 methanol:water): 98±1.6%
chemical stability ([2]; receiver fluid 50:50 PG:mobile phase (90:10 methanol:water pH 3.2)): 71±2.7%
compatibility with DURO-TAK 87-2516 [3]: compatible
compatibility with DURO-TAK 87-9301 [3]: did not show compatibility
miscibility with Oppanol B12 and Oppanol N100 [3]: did not show acceptable miscibility
highest active loading without any crystallization ([3]; DURO-TAK 87-2516): 0.6 mg/mL
Solubility ([3]; DURO-TAK 87-2516 93.2 μL, 10% w/v drug, 1.4 mL methanol, 2.75 mL ethyl acetate, 2 μL PG, 150 μL water): Clear
Solubility ([3]; DURO-TAK 87-2516 100 μL, 10% w/v drug, 0.5 mL methanol, 0.5-1.5 mL ethyl acetate, 2 μL PG, no water): Not clear
Solubility ([3]; DURO-TAK 87-2516 180 μL, 5% drug, 1.4 mL methanol, 2.5 mL ethyl acetate, 4 μL PG, 150 μL water): Clear
Solubility ([3]; DURO-TAK 87-2516 200 μL, 3% drug, 0.9 mL methanol, 2 mL ethyl acetate, 40 μL PG, 100 μL water): Clear
Solubility ([3]; DURO-TAK 87-9301 suitability screen, 4 mg drug, 0.2 mL adhesive, 1-4 mL ethyl acetate, 60 μL PG): Opaque
Solubility ([3]; DURO-TAK 87-9301 suitability screen, 4 mg drug, no adhesive, 4 mL methanol, 40 μL PG): Clear
release through regenerated cellulose membrane ([4]; PG donor, 50:50 PG:MP (90:10 methanol:water pH 3.2) receiver): 22.0±4.6%
release through regenerated cellulose membrane ([4]; saline donor, saline receiver): 3.0±0.7%
active release from PG solution, percent of applied active [5]: 17%
active release from PG solution ([5]; nylon membrane): 512±17 μg/cm^2
